Test results: patent US9611267B2, “Substituted tricyclic compounds as FGFR inhibitors” (Incyte Corporation, priority 2012, dated 2017)

What was measured:
Format in all cases: biochemical
FGFR1 = FGFR1 (Homo sapiens (Human), UniProt P11362); experiment: FGFR enzymatic assay (FRET peptide phosphorylation), FGFR1; conditions: FGFR1 enzyme 0.02 nM, ATP 210 μM
Procedure, shortened: (§1)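 Recombinant kinase was pre-incubated 5–10 min with serially diluted inhibitor in HEPES buffer (10 mM MgCl2, 5 mM DTT, pH 7.5; buffer described for FGFR3). Peptide phosphorylation ran 1 h at 25 °C and was detected by FRET after ~1 h equilibration. IC50 values come from variable-slope sigmoidal fits.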

FGFR2 = FGFR2 (Homo sapiens (Human), UniProt P21802); experiment: FGFR enzymatic assay (FRET peptide phosphorylation), FGFR2; conditions: FGFR2 enzyme 0.01 nM, ATP 100 μM
Procedure, shortened: as §1

FGFR3 = FGFR3 (Homo sapiens (Human), UniProt P22607); experiment: FGFR enzymatic assay (FRET peptide phosphorylation), FGFR3; conditions: FGFR3 enzyme (Millipore), ATP 140 μM
Procedure, shortened: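 FRET assay of peptide phosphorylation by FGFR3 in HEPES pH 7.5 buffer with MgCl2, EGTA, Tween-20 and DTT. Enzyme was pre-incubated 5-10 min with compound, and the reaction ran 1 hr at 25° C. IC50 came from a variable-slope sigmoidal fit.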

Chain of FGFR3 (P22607 23-806): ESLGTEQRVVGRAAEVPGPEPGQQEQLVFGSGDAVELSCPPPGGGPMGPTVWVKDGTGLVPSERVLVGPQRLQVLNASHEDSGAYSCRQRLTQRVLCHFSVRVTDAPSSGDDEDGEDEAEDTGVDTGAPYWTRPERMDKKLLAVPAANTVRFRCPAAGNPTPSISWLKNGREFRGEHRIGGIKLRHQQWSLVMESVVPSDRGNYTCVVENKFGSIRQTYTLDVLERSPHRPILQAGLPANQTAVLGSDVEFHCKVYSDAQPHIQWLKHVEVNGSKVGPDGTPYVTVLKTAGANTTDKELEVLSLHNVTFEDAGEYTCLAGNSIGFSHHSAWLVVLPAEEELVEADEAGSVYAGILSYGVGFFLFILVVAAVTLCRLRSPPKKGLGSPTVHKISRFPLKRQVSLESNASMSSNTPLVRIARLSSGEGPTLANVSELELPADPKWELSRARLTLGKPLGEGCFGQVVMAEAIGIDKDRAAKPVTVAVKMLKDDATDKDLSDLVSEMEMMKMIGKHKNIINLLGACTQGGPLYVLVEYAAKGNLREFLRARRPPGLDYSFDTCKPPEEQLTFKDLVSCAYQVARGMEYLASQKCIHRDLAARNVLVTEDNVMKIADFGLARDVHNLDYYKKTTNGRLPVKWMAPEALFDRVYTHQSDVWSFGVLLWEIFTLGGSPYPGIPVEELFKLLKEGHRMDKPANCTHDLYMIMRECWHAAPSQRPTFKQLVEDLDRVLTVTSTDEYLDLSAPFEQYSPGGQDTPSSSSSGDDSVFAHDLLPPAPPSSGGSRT
Chain of FGFR2 (P21802 22-821): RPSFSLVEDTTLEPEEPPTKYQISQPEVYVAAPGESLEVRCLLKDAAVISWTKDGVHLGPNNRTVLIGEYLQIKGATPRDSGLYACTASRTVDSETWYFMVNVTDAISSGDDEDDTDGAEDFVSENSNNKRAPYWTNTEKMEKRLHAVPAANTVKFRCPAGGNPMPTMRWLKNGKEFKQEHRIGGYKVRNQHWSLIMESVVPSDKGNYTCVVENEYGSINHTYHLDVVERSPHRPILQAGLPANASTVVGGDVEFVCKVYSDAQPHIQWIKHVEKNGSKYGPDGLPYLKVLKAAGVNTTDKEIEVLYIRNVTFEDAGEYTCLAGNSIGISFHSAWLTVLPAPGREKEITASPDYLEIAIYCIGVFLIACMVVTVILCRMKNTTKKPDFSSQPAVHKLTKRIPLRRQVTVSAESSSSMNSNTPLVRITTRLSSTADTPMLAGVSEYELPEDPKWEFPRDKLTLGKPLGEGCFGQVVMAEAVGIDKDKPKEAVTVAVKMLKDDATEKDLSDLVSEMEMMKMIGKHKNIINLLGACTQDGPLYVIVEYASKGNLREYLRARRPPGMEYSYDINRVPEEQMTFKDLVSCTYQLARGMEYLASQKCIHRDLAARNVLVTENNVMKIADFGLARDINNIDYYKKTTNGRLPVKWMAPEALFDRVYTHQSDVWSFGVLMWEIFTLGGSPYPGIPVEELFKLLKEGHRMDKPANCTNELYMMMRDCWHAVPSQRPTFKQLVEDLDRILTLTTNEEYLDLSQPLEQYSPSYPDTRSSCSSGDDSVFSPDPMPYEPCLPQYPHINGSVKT
Chain of FGFR1 (P11362 22-822): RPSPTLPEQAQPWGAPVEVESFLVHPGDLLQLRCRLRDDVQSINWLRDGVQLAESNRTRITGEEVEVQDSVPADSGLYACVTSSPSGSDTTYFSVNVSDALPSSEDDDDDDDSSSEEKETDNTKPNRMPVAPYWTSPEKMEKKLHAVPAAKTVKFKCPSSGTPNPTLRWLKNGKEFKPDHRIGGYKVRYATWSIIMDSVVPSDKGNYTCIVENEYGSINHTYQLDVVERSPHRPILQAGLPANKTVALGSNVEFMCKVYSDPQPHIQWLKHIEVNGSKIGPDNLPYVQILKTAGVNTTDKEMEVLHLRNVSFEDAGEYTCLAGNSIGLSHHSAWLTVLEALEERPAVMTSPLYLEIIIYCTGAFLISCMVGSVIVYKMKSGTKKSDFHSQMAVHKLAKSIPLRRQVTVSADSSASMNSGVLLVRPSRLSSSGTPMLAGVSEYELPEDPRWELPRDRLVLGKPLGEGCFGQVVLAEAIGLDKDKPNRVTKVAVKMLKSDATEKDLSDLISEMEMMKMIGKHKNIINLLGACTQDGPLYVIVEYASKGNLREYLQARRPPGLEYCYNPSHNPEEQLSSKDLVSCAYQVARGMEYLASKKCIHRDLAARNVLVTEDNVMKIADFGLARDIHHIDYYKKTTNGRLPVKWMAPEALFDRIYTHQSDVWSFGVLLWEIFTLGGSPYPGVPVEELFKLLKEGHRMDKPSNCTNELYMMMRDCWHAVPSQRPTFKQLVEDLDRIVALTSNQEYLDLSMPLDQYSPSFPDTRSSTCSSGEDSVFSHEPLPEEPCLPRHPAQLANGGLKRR

| IC50 (FGFR1) [nM] | IC50 (FGFR2) [nM] | IC50 (FGFR3) [nM] | Compound |
| --- | --- | --- | --- |
| < 100 | < 100 | < 100 | COc1cc(OC)c(F)c(N2Cc3cnc4c(c3N(C3CCC3)C2=O)CC(=O)N4)c1F [Example 64, 1-cyclobutyl-3-(2,6-difluoro-3,5-dimethoxyphenyl)-3,4,7,9-tetrahydro-1H-pyrrolo[3′,2′:5,6]pyrido[4,3-d]pyrimidine-2,8-dione] |
| < 100 | < 100 | < 100 | COc1cc(OC)c(F)c(N2Cc3cnc4[nH]nc(C)c4c3N(C3CC3)C2=O)c1F [Example 97, 1-cyclopropyl-3-(2,6-difluoro-3,5-dimethoxyphenyl)-9-methyl-1,3,4,7-tetrahydro-2H-pyrazolo[4′,3′:5,6]pyrido[4,3-d]pyrimidin-2-one] |
| < 100 | < 100 | < 100 | COc1cc(OC)c(F)c(N2Cc3cnc4[nH]c(CN5CC[C@H](N(C)C)C5)cc4c3C(C)(C)C2=O)c1F [Example 156, 7-(2,6-difluoro-3,5-dimethoxyphenyl)-2-{[(3S)-3-(dimethylamino)pyrrolidin-1-yl]methyl}-9,9-dimethyl-3,6,7,9-tetrahydro-8H-pyrrolo[2,3-c]-2,7-naphthyridin-8-one] |
| < 100 | < 100 | < 100 | COc1cc(OC)c(F)c(N2Cc3cnc4[nH]ccc4c3N([C@@H]3CCC[C@H]3O)C2=O)c1F [Example 74, 3-(2,6-difluoro-3,5-dimethoxyphenyl)-1-[(1R,2R)-2-hydroxycyclopentyl]-1,3,4,7-tetrahydro-2H-pyrrolo[3′,2′:5,6]pyrido[4,3-d]pyrimidin-2-one] |
| < 100 | < 100 | < 100 | COc1cc(OC)c(F)c(N2Cc3cnc4[nH]c(CCN5CCN(C)CC5)cc4c3N(c3cccc(F)c3)C2=O)c1F [Example 228, 3-(2,6-difluoro-3,5-dimethoxyphenyl)-1-(3-fluorophenyl)-8-[2-(4-methylpiperazin-1-yl)ethyl]-1,3,4,7-tetrahydro-2H-pyrrolo[3′,2′:5,6]pyrido[4,3-d]pyrimidin-2-one] |
| < 100 | < 100 | < 100 | COc1cc(OC)c(F)c(N2Cc3cnc4[nH]ccc4c3N(C3CCOCC3)C2=O)c1F [Example 46, 3-(2,6-Difluoro-3,5-dimethoxyphenyl)-1-(tetrahydro-2H-pyran-4-yl)-1,3,4,7-tetrahydro-2H-pyrrolo[3′,2′:5,6]pyrido[4,3-d]pyrimidin-2-one] |
| < 100 | < 100 | < 100 | COc1cc(OC)c(Cl)c(N2Cc3cnc4[nH]ccc4c3N(c3cccnc3)C2=O)c1F [Example 108, 3-(2-chloro-6-fluoro-3,5-dimethoxyphenyl)-1-pyridin-3-yl-1,3,4,7-tetrahydro-2H-pyrrolo[3′,2′:5,6]pyrido[4,3-d]pyrimidin-2-one] |
| < 100 | < 100 | < 100 | COc1cc(OC)c(F)c(N2Cc3cnc4[nH]ncc4c3N(C[C@H]3CCOC3)C2=O)c1F [Example 178, 3-(2,6-difluoro-3,5-dimethoxyphenyl)-1-[(3R)-tetrahydrofuran-3-ylmethyl]-1,3,4,7-tetrahydro-2H-pyrazolo[4′,3′:5,6]pyrido[4,3-d]pyrimidin-2-one] |
| < 100 | < 100 | < 100 | CCN1C(=O)N(c2c(F)c(OC)cc(OC)c2F)Cc2cnc3c(c21)CC(=O)N3 [Example 49, 3-(2,6-Difluoro-3,5-dimethoxyphenyl)-1-ethyl-3,4,7,9-tetrahydro-1H-pyrrolo[3′,2′:5,6]pyrido[4,3-d]pyrimidine-2,8-dione] |
| < 100 | < 100 | < 100 | COc1cc(OC)c(F)c(N2Cc3cnc4[nH]c(CN5CCOCC5)cc4c3N(CCO)C2=O)c1F [Example 221, 3-(2,6-difluoro-3,5-dimethoxyphenyl)-1-(2-hydroxyethyl)-8-(morpholin-4-ylmethyl)-1,3,4,7-tetrahydro-2H-pyrrolo[3′,2′:5,6]pyrido[4,3-d]pyrimidin-2-one] |

The next lines start with the compound.

| Compound | IC50 (FGFR1) [nM] | IC50 (FGFR2) [nM] | IC50 (FGFR3) [nM] |
| --- | --- | --- | --- |
| CCN1C(=O)N(c2c(F)c(OC)cc(OC)c2F)Cc2cnc3[nH]ccc3c21 [Example 121, 3-(2,6-Difluoro-3,5-dimethoxyphenyl)-1-ethyl-1,3,4,7-tetrahydro-2H-pyrrolo[3′,2′:5,6]pyrido[4,3-d]pyrimidin-2-one] | < 100 | < 100 | < 100 |
| CCN1C(=O)N(c2c(F)c(OC)cc(OC)c2F)Cc2cnc3[nH]c(CCN4CCOCC4)cc3c21 [Example 185, 3-(2,6-difluoro-3,5-dimethoxyphenyl)-1-ethyl-8-(2-morpholin-4-ylethyl)-1,3,4,7-tetrahydro-2H-pyrrolo[3′,2′:5,6]pyrido[4,3-d]pyrimidin-2-one] | < 100 | < 100 | < 100 |
| COc1cc(OC)c(F)c(N2Cc3cnc4[nH]ncc4c3N(c3cnn(C)c3)C2=O)c1F [Example 85, 3-(2,6-difluoro-3,5-dimethoxyphenyl)-1-(1-methyl-1H-pyrazol-4-yl)-1,3,4,7-tetrahydro-2H-pyrazolo[4′,3′:5,6]pyrido[4,3-d]pyrimidin-2-one] | < 100 | < 100 | < 100 |
| CCN1CCN(Cc2cc3c4c(cnc3[nH]2)CN(c2c(F)c(OC)cc(OC)c2F)C(=O)N4c2cnn(C)c2)CC1 [Example 205, 3-(2,6-difluoro-3,5-dimethoxyphenyl)-8-[(4-ethylpiperazin-1-yl)methyl]-1-(1-methyl-1H-pyrazol-4-yl)-1,3,4,7-tetrahydro-2H-pyrrolo[3′,2′:5,6]pyrido[4,3-d]pyrimidin-2-one] | < 100 | < 100 | < 100 |
| COc1cc(OC)c(F)c(N2Cc3cnc4c(c3N(Cc3cccc(F)c3)C2=O)CC(=O)N4)c1F [Example 65, 3-(2,6-difluoro-3,5-dimethoxyphenyl)-1-(3-fluorobenzyl)-3,4,7,9-tetrahydro-1H-pyrrolo[3′,2′:5,6]pyrido[4,3-d]pyrimidine-2,8-dione] | < 100 | < 100 | < 100 |
| COc1cc(OC)c(F)c(N2Cc3cnc4[nH]ccc4c3C3(CC3)C2=O)c1F [Example 66, 7′-(2,6-difluoro-3,5-dimethoxyphenyl)-6′,7′-dihydrospiro[cyclopropane-1,9′-pyrrolo[2,3-c][2,7]naphthyridin]-8′(3′H)-one] | < 100 | < 100 | < 100 |
| COc1cc(OC)c(Cl)c(N2Cc3cnc4[nH]ncc4c3N(C3CC3)C2=O)c1F [Example 101, 3-(2-chloro-6-fluoro-3,5-dimethoxyphenyl)-1-cyclopropyl-1,3,4,7-tetrahydro-2H-pyrazolo[4′,3′:5,6]pyrido[4,3-d]pyrimidin-2-one] | < 100 | < 100 | < 100 |
| COc1cc(OC)c(F)c(N2Cc3cnc4[nH]ccc4c3C3(CCCC3)C2=O)c1F [Example 149, 7′-(2,6-difluoro-3,5-dimethoxyphenyl)-6′,7′-dihydrospiro[cyclopentane-1,9′-pyrrolo[2,3-c][2,7]naphthyridin]-8′(3′H)-one] | < 100 | < 100 | < 100 |
| COc1cc(CN2C(=O)N(c3c(F)c(OC)cc(OC)c3F)Cc3cnc4[nH]ncc4c32)ccn1 [Example 177, 3-(2,6-difluoro-3,5-dimethoxyphenyl)-1-[(2-methoxypyridin-4-yl)methyl]-1,3,4,7-tetrahydro-2H-pyrazolo[4′,3′:5,6]pyrido[4,3-d]pyrimidin-2-one] | < 100 | < 100 | < 100 |
| COc1cc(OC)c(F)c(N2Cc3cnc4[nH]ccc4c3CC2=O)c1F [Example 60, 7-(2,6-difluoro-3,5-dimethoxyphenyl)-3,6,7,9-tetrahydro-8H-pyrrolo[2,3-c]-2,7-naphthyridin-8-one] | < 100 | < 100 | < 100 |
| COc1cc(OC)c(F)c(N2Cc3cnc4[nH]c(CN5CC(C#N)C5)cc4c3N(C)C2=O)c1F [Example 208, 1-{[3-(2,6-difluoro-3,5-dimethoxyphenyl)-1-methyl-2-oxo-2,3,4,7-tetrahydro-1H-pyrrolo[3′,2′:5,6]pyrido[4,3-d]pyrimidin-8-yl]methyl}azetidine-3-carbonitrile] | < 100 | < 100 | < 100 |
| COc1cc(OC)c(F)c(N2Cc3cnc4[nH]c(CN5CCC(C#N)CC5)cc4c3C(C)(C)C2=O)c1F [Example 155, 1-{[7-(2,6-difluoro-3,5-dimethoxyphenyl)-9,9-dimethyl-8-oxo-6,7,8,9-tetrahydro-3H-pyrrolo[2,3-c]-2,7-naphthyridin-2-yl]methyl}piperidine-4-carbonitrile] | < 100 | < 100 | < 100 |
| COc1cc(OC)c(F)c(N2Cc3cnc4[nH]ncc4c3N(c3cccc4cccnc34)C2=O)c1F [Example 96, 3-(2,6-difluoro-3,5-dimethoxyphenyl)-1-quinolin-8-yl-1,3,4,7-tetrahydro-2H-pyrazolo[4′,3′:5,6]pyrido[4,3-d]pyrimidin-2-one] | < 100 | < 100 | < 100 |
| COc1cc(OC)c(F)c(N2Cc3cnc4c(c3N([C@@H]3CCC[C@H]3O)C2=O)CC(=O)N4)c1F [Example 75, 3-(2,6-difluoro-3,5-dimethoxyphenyl)-1-[(1R,2R)-2-hydroxycyclopentyl]-3,4,7,9-tetrahydro-1H-pyrrolo[3′,2′:5,6]pyrido[4,3-d]pyrimidine-2,8-dione] | < 100 | < 100 | < 100 |
